Results reported in patent US9783505B2, “Substituted diaminopyrimidyl compounds, compositions thereof, and methods of treatment therewith” (Signal Pharmaceuticals, LLC, priority 2013, dated 2017).
pIC50: −log10 of the molar value.

Legend:
PKC delta = target: T1, PKC delta (Homo sapiens, UniProt Q05655); test: PKC delta Assay (384-well time resolved fluorescence, IMAP TR-FRET); format: biochemical; settings: selectivity for PKC-theta over PKC-delta
T1 construct: purchased Invitrogen
Description: PKC delta Assay. A 384-well time resolved fluorescence assay was used to monitor PKC delta activity. The PKC delta assay was run in the following assay buffer: 50 mM HEPES pH 7.6, 10 mM MgCl2, 1 mM DTT, 0.01% Triton X-100, 0.01% BSA and 0.1 mM EDTA. To initiate the reaction, 200 nM of Fam-labeled S6-derived peptide (Molecular Devices) and 10 μM of ATP were mixed with 1.5 nM of PKC delta (Invitrogen), for a total assay volume of 25 μL in each well. The assay was incubated at room temperature for 2 hours and terminated using a 60 μL/well mixture of Detection Binding Solution: 70% IMAP Progressive Binding Buffer A, 30% IMAP Progressive Binding Buffer B, 1:600 Progressive Binding Reagent, and 1:400 TR-FRET Tb Donor (Molecular Devices). The assay plates were then incubated overnight at room temperature and read on the Perkin-Elmer Envision Reader.

His-PKC-theta = target: T2, His-PKC-theta (Homo sapiens, UniProt Q04759); test: PKC-theta Assay (384-well time resolved fluorescence, IMAP TR-FRET); format: biochemical; settings: read-out: Act. Level (IC50 in the PKC-theta Assay)
T2 construct: His; purchased Invitrogen
T2 sequence (Q04759 whole entry): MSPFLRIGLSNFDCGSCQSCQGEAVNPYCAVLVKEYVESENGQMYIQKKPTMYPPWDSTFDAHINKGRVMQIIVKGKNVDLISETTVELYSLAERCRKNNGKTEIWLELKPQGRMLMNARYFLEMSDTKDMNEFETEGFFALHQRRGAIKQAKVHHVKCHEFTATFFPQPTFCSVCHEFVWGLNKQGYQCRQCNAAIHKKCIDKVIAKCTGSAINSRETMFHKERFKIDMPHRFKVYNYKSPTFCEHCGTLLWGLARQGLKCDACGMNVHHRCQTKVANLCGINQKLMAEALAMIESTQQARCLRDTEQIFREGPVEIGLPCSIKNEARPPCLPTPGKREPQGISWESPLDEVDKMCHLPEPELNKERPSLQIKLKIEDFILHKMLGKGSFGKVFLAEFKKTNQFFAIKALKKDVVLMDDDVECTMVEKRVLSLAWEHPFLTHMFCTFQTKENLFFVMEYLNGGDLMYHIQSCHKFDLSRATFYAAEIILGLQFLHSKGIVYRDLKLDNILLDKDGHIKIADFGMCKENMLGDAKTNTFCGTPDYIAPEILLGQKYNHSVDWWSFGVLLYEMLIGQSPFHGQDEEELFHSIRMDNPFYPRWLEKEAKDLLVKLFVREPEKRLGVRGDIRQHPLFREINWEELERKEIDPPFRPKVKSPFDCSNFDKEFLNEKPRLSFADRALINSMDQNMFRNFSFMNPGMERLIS
How it was run: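 Fam-labeled S6-derived peptide (200 nM) and 10 μM ATP were reacted with 142 pM enzyme for 2 h at room temperature in HEPES pH 7.6 buffer with MgCl2, DTT, Triton X-100, BSA and EDTA. The reaction was stopped with IMAP progressive binding reagent plus Tb donor, incubated overnight, then TR-FRET read.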

T1 sequence (Q05655 whole entry): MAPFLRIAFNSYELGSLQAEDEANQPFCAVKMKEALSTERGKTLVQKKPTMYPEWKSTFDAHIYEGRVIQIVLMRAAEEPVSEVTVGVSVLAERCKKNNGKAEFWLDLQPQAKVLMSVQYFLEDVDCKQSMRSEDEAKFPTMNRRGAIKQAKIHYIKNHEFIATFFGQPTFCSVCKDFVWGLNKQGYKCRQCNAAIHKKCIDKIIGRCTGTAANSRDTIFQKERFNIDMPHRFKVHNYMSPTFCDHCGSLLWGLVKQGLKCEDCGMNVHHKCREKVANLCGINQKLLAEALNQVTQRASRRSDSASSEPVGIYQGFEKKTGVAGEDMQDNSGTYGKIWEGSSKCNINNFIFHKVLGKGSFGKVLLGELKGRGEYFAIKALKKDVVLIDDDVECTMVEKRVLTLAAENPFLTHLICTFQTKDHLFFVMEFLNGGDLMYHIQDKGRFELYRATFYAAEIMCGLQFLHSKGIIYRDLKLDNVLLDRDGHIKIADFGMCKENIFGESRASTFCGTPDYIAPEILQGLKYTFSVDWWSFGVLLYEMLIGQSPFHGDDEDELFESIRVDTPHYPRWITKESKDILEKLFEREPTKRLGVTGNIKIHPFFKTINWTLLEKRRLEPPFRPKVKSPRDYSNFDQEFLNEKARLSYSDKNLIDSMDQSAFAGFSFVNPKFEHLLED

Compound | Sel. Level (ratio of IC50 PKC-delta/IC50 PKC-theta) (PKC delta) | pIC50 (His-PKC-theta)
CCOc1cc(CCNc2ncc(C#N)c(N[C@H]3CC[C@@H](O)CC3)n2)ccn1 [Cmpd 328] | H (selectivity level of 5-fold or less (selectivity level H)) | 5.00 to 5.70
CC1(C)[C@@H](O)C[C@H]1Nc1nc(NCCC2CNc3cc(Cl)ccc32)ncc1C#N (stereo partly shown) [Cmpd 263] | G (selectivity between 5- and 20-fold (selectivity level G)) | 6.10 to 7.00
CC1(C)[C@@H](O)C[C@H]1Nc1nc(NCCc2cncc(C(F)(F)F)c2)ncc1C#N [Cmpd 274] | G (selectivity between 5- and 20-fold (selectivity level G)) | 5.70 to 6.10
COc1cccc(CCNc2ncc(C#N)c(N[C@@H]3CC(O)C3(C)C)n2)n1 (stereo partly shown) [Cmpd 227] | G (selectivity between 5- and 20-fold (selectivity level G)) | 5.70 to 6.10
CC1(C)C[C@H](Nc2nc(NCCc3ccccn3)ncc2C#N)CC[C@@H]1O [Cmpd 282] | H (selectivity level of 5-fold or less (selectivity level H)) | 5.00 to 5.70
CC1(C)C[C@H](Nc2nc(NCCc3ccncn3)ncc2C#N)CC[C@@H]1O [Cmpd 278] | H (selectivity level of 5-fold or less (selectivity level H)) | 5.00 to 5.70
CC1(C)[C@@H](O)C[C@H]1Nc1nc(NCCc2c[nH]c3cc(F)ccc23)ncc1C#N [Cmpd 265] | G (selectivity between 5- and 20-fold (selectivity level G)) | 6.10 to 7.00
Cc1cccc2c1NC(=O)C2CCNc1ncc(C#N)c(N[C@@H]2C[C@H](O)C2(C)C)n1 (stereo partly shown) [Cmpd 260] | F (selectivity of between 20- and 100-fold (selectivity level F)) | > 7.00
CC1(C)[C@@H](O)C[C@H]1Nc1nc(NCCC2C(=O)Nc3ccccc32)ncc1C#N (stereo partly shown) [Cmpd 259] | E (selectivity (Sel. Level=ratio of IC50 PKC-delta/IC50 PKC-theta) of >100-fold (selectivity level E)) | > 7.00
CN1C(=O)C(CCNc2ncc(C#N)c(N[C@@H]3C[C@H](C(N)=O)C3(C)C)n2)c2ccccc21 (stereo partly shown) [Cmpd 325] | F (selectivity of between 20- and 100-fold (selectivity level F)) | 6.10 to 7.00
CC1(C)[C@@H](O)C[C@H]1Nc1nc(NCCc2nc3ccccc3o2)ncc1C#N [Cmpd 242] | H (selectivity level of 5-fold or less (selectivity level H)) | 5.00 to 5.70
COc1cccc(CCNc2ncc(C#N)c(N[C@@H]3CC[C@H](O)C(C)(C)C3)n2)n1 [Cmpd 215] | G (selectivity between 5- and 20-fold (selectivity level G)) | 5.70 to 6.10
CC1(C)[C@H](O)CCC[C@@H]1Nc1nc(NCCC2C(=O)Nc3cc(F)ccc32)ncc1C#N (stereo partly shown) [Cmpd 311] | G (selectivity between 5- and 20-fold (selectivity level G)) | 6.10 to 7.00
Cc1[nH]c2cc(Cl)cc(Cl)c2c1CCNc1ncc(C#N)c(N[C@@H]2CC[C@H](O)C(C)(C)C2)n1 [Cmpd 254] | G (selectivity between 5- and 20-fold (selectivity level G)) | 6.10 to 7.00
COc1cncc(CCNc2ncc(C#N)c(N[C@H]3CC[C@@H](O)CC3)n2)c1 [Cmpd 331] | H (selectivity level of 5-fold or less (selectivity level H)) | 5.00 to 5.70
CC1(C)[C@@H](O)C[C@H]1Nc1nc(NCCc2ccn[nH]2)ncc1C#N [Cmpd 245] | G (selectivity between 5- and 20-fold (selectivity level G)) | 5.70 to 6.10
COc1cncc(CCNc2ncc(C#N)c(N[C@@H]3CC[C@H](O)C(C)(C)C3)n2)c1 [Cmpd 329] | G (selectivity between 5- and 20-fold (selectivity level G)) | 6.10 to 7.00
CC1(C)[C@@H](O)C[C@H]1Nc1nc(NCCc2cc3cc(C#N)ccc3[nH]2)ncc1C#N [Cmpd 264] | G (selectivity between 5- and 20-fold (selectivity level G)) | 6.10 to 7.00
Cc1nc2ccccc2n1CCNc1ncc(C#N)c(N[C@@H]2CC[C@H](O)C(C)(C)C2)n1 [Cmpd 207] | H (selectivity level of 5-fold or less (selectivity level H)) | 5.00 to 5.70
Cc1ncccc1CCNc1ncc(C#N)c(N[C@@H]2CC[C@H](O)C(C)(C)C2)n1 [Cmpd 258] | F (selectivity of between 20- and 100-fold (selectivity level F)) | 6.10 to 7.00
CC1(C)C[C@H](Nc2nc(NCCn3cccc3)ncc2C#N)CC[C@@H]1O [Cmpd 201] | F (selectivity of between 20- and 100-fold (selectivity level F)) | 6.10 to 7.00

Compound | Sel. Level (ratio of IC50 PKC-delta/IC50 PKC-theta) (PKC delta) | pIC50 (His-PKC-theta)
CC1(C)C[C@H](Nc2nc(NCCc3cnccn3)ncc2C#N)CC[C@@H]1O [Cmpd 279] | H (selectivity level of 5-fold or less (selectivity level H)) | 5.00 to 5.70
CC1(C)C[C@H](Nc2nc(NCCc3ccn[nH]3)ncc2C#N)CC[C@@H]1O [Cmpd 216] | G (selectivity between 5- and 20-fold (selectivity level G)) | 5.70 to 6.10
CC(F)(F)COc1ncncc1CNc1ncc(C#N)c(N[C@H]2CC3(C2)C[C@](C)(O)C3)n1 (stereo partly shown) [Cmpd 294] | F (selectivity of between 20- and 100-fold (selectivity level F)) | 6.10 to 7.00
Cn1c(=O)n(CCNc2ncc(C#N)c(N[C@@H]3CC[C@H](O)C(C)(C)C3)n2)c2ccccc21 [Cmpd 291] | H (selectivity level of 5-fold or less (selectivity level H)) | 5.00 to 5.70
CC1(C)C[C@H](Nc2nc(NCCc3cc(Cl)c[n+]([O-])c3)ncc2C#N)CC[C@@H]1O [Cmpd 275] | G (selectivity between 5- and 20-fold (selectivity level G)) | 5.70 to 6.10
CC1(C)[C@H](Nc2nc(NCc3cncnc3OCCC(F)(F)F)ncc2C#N)C[C@]1(C)O [Cmpd 334] | E (selectivity (Sel. Level=ratio of IC50 PKC-delta/IC50 PKC-theta) of >100-fold (selectivity level E)) | > 7.00
CC1(C)C[C@H](Nc2nc(NCCc3cc(C(F)(F)F)ccn3)ncc2C#N)CC[C@@H]1O [Cmpd 326] | G (selectivity between 5- and 20-fold (selectivity level G)) | 6.10 to 7.00
CC(F)(F)COc1ncncc1CNc1ncc(C#N)c(N[C@H]2CCC[C@@H](O)C2(C)C)n1 [Cmpd 298] | E (selectivity (Sel. Level=ratio of IC50 PKC-delta/IC50 PKC-theta) of >100-fold (selectivity level E)) | > 7.00
Cc1ccc(CCNc2ncc(C#N)c(N[C@@H]3C[C@H](O)C3(C)C)n2)cn1 [Cmpd 235] | H (selectivity level of 5-fold or less (selectivity level H)) | 5.00 to 5.70
CC1(C)C[C@H](Nc2nc(NCCn3ccc(-c4ccccc4)n3)ncc2C#N)CC[C@@H]1O [Cmpd 209] | H (selectivity level of 5-fold or less (selectivity level H)) | 5.00 to 5.70
CC1(C)[C@H](O)CCC[C@H]1Nc1nc(NCCC2C(=O)Nc3cc(F)ccc32)ncc1C#N (stereo partly shown) [Cmpd 310] | H (selectivity level of 5-fold or less (selectivity level H)) | 5.70 to 6.10
Cc1cccc(CCNc2ncc(C#N)c(N[C@@H]3C[C@H](O)C3(C)C)n2)n1 [Cmpd 262] | H (selectivity level of 5-fold or less (selectivity level H)) | 5.00 to 5.70
CC1(C)C[C@H](Nc2nc(NCCc3c[nH]c4cnccc34)ncc2C#N)CC[C@@H]1O [Cmpd 283] | F (selectivity of between 20- and 100-fold (selectivity level F)) | 6.10 to 7.00
Cc1cc2ccccc2n1CCNc1ncc(C#N)c(N[C@@H]2CC[C@H](O)C(C)(C)C2)n1 [Cmpd 206] | F (selectivity of between 20- and 100-fold (selectivity level F)) | 6.10 to 7.00
CC1(C)[C@@H](O)CCC[C@H]1Nc1nc(NCCC2C(=O)Nc3ccc(F)cc32)ncc1C#N (stereo partly shown) [Cmpd 316] | F (selectivity of between 20- and 100-fold (selectivity level F)) | > 7.00
CNS(=O)(=O)Cc1ccc2[nH]cc(CCNc3ncc(C#N)c(N[C@@H]4C[C@H](O)C4(C)C)n3)c2c1 [Cmpd 266] | H (selectivity level of 5-fold or less (selectivity level H)) | 5.00 to 5.70
Cc1nc(CCNc2ncc(C#N)c(N[C@@H]3CC(O)C3(C)C)n2)no1 (stereo partly shown) [Cmpd 233] | H (selectivity level of 5-fold or less (selectivity level H)) | 5.00 to 5.70
CC(F)(F)COc1ncncc1CNc1ncc(C#N)c(N[C@H]2CCC[C@H](O)C2(C)C)n1 [Cmpd 296] | F (selectivity of between 20- and 100-fold (selectivity level F)) | 6.10 to 7.00
CC1(C)C[C@H](Nc2nc(NCCc3c[nH]c4ccccc34)ncc2C#N)CC[C@@H]1O [Cmpd 203] | F (selectivity of between 20- and 100-fold (selectivity level F)) | > 7.00
CC1(C)C[C@H](Nc2nc(NCCn3ccc4ccccc43)ncc2C#N)CC[C@@H]1O [Cmpd 202] | H (selectivity level of 5-fold or less (selectivity level H)) | 5.00 to 5.70
